molecular target: T1, DNA repair protein RAD51 homolog 1 (Homo sapiens, UniProt Q06609); assay: concentration-dependent blocking of RAD51 activity – biochemical, homologous recombination, fluorescence, dose response (AID 1435); details: not given
T1 sequence (Q06609 whole entry): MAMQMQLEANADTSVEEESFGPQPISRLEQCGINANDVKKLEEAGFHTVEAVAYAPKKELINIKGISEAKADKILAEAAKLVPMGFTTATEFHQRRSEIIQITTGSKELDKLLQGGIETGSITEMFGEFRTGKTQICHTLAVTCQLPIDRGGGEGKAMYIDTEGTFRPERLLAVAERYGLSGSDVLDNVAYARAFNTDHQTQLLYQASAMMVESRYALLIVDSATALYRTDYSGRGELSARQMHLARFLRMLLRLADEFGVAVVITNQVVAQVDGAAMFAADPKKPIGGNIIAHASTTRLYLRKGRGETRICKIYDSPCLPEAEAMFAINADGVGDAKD

| Compound | IC50 |
| --- | --- |
| Cc1ccc(C(=O)COc2cccc(NC(=O)c3ccco3)c2)cc1 [N-{3-[2-(4-methylphenyl)-2-oxoethoxy]phenyl}-2-furamide] | > 85 µM |
| O=C(CSc1nnc(Cc2ccccc2)o1)N1CCc2ccccc21 [1-{[(5-benzyl-1,3,4-oxadiazol-2-yl)thio]acetyl}indoline] | > 85 µM |
| CCOc1ccccc1C(=O)Nc1nccs1 | > 85 µM |
| CCOC(=O)Cn1c(=O)c2c(nc(N3CCCCC3)n2Cc2ccccc2)n(C)c1=O [2-(7-benzyl-2,6-diketo-3-methyl-8-piperidino-purin-1-yl)acetic acid ethyl ester] | > 85 µM |
| COCCn1c(=NC(=O)CSC(C)=O)sc2cc(F)ccc21 [S-[2-[[6-fluoranyl-3-(2-methoxyethyl)-1,3-benzothiazol-2-ylidene]amino]-2-oxidanylidene-ethyl] ethanethioate] | > 85 µM |
| CCCCCOCC1CC(CC(C)N=Nc2nc(-c3ccccc3)cs2)C(=O)O1 (centres undefined) [5-(amoxymethyl)-3-[2-[(4-phenylthiazol-2-yl)hydrazono]propyl]tetrahydrofuran-2-one] | > 85 µM |
| COc1ccc(S(=O)(=O)NC(C)C(=O)Nc2ccccc2C(F)(F)F)cc1 (centres undefined) | > 85 µM |
| FC(F)(F)c1nnc2ccc(N3CCCC3)nn12 [6-(1-pyrrolidinyl)-3-(trifluoromethyl)[1,2,4]triazolo[4,3-b]pyridazine] | > 85 µM |
| CCCCNC(=S)NNC(=O)C12CC3CC(CC(C3)C1)C2 | > 85 µM |
| Cc1cc2nc3c(nc2cc1C)C1(C(=O)O)CCC3(C)C1(C)C (centres undefined) [6,7,12,15,15-pentamethyl-3,10-diazatetracyclo[10.2.1.0~2,11~.0~4,9~]pentadeca-2(11),3,5,7,9-pentaene-1-carboxylic acid] | 37.1 µM |
| Cc1cc(O)c(C=O)c2c1C(=O)Oc1c(CO)c(O)c3c(c1O2)C(O)OC3=O (centres undefined) [1,4,10-Trihydroxy-5-hydroxymethyl-8-methyl-3,7-dioxo-1,3-dihydro-7H-benzo[e]furo[3'''',4'''':3,4]benzo[b][1,4]dioxepine-11-carbaldehyde] | 8.02 µM |
| O=c1[nH]c(N2CCN(Cc3ccc4c(c3)OCO4)CC2)nc2c1CCC2 [MLS000100276] | > 85 µM |
| CCOC(=O)c1c(NS(C)(=O)=O)sc2c1CCC(C)C2 (centres undefined) [ethyl 2-(methanesulfonamido)-6-methyl-4,5,6,7-tetrahydro-1-benzothiophene-3-carboxylate] | > 85 µM |
| CCOC(=O)C1CCCN(S(=O)(=O)c2ccc(OC)cc2)C1 (centres undefined) [1-(4-methoxyphenyl)sulfonyl-3-piperidinecarboxylic acid ethyl ester] | > 85 µM |
| O=C(CSc1ncn(-c2ccccc2)n1)c1cccs1 | > 85 µM |
| COC(=O)C(C=Nc1cccc(Cl)c1C)c1ncc(C(F)(F)F)cc1Cl (centres undefined) [methyl (Z)-3-(3-chloro-2-methylanilino)-2-[3-chloro-5-(trifluoromethyl)-2-pyridinyl]-2-propenoate] | > 85 µM |
| O=C(c1ccc2ccccc2n1)N1CCN(c2ccccc2O)CC1 [Glucosamine derivative, 2] | > 85 µM |
| Cc1ccccc1NC(=O)NCC1CCCO1 (centres undefined) [1-(2-methylphenyl)-3-(oxolan-2-ylmethyl)urea] | > 85 µM |
| CCOC(=O)C1(C(=O)OCC)CC1c1ccccc1 (centres undefined) [2-phenylcyclopropane-1,1-dicarboxylic acid diethyl ester] | > 85 µM |

| Compound | IC50 |
| --- | --- |
| O=S(=O)(Nc1ccc(O)c(CN2CCCCC2)c1)c1ccccc1 [N-[4-oxidanyl-3-(piperidin-1-ylmethyl)phenyl]benzenesulfonamide] | > 85 µM |
| CCN(CC)S(=O)(=O)c1ccc2c(c1)nc(SC(C)C(N)=O)n2-c1ccc(OC)cc1 (centres undefined) [2-[5-(diethylsulfamoyl)-1-(4-methoxyphenyl)benzimidazol-2-yl]sulfanylpropanamide] | 34.8 µM |
| COC(=O)COc1ccc(S(=O)(=O)NCCC2=CCCCC2)cc1C [methyl [4-({[2-(1-cyclohexen-1-yl)ethyl]amino}sulfonyl)-2-methylphenoxy]acetate] | > 85 µM |
| CC(C)CC(=O)/N=C(\N)Nc1nc2ccccc2s1 [N-[(E)-N''''-(1,3-benzothiazol-2-yl)carbamimidoyl]-3-methylbutanamide] | > 85 µM |
| Cc1cc(C(=O)Nc2cccnc2)cs1 [5-methyl-N-pyridin-3-yl-thiophene-3-carboxamide] | > 85 µM |
| CCOC(=O)C1CCN(C(=O)c2ccco2)CC1 [1-(2-furoyl)isonipecotic acid ethyl ester] | > 85 µM |
| O=c1cc(-c2ccccc2Cl)oc2ccc([N+](=O)[O-])c(O)c12 [2-(2-chlorophenyl)-5-hydroxy-6-nitrochromen-4-one] | > 85 µM |
| Cc1[nH]nc2c1C(=O)CCC2 | > 85 µM |
| Cn1cc(NC(=O)c2cc(NC(=O)c3cc(NC=O)cn3C)cn2C)cc1C(=O)NCCC(=N)N | 6.37 µM |
| CCC(=O)Nc1nc(=S)ss1 | > 85 µM |
| O=C(CSCc1ccc(F)cc1)Nc1nc2c(s1)CCCC2 [2-[(4-fluorobenzyl)thio]-N-(4,5,6,7-tetrahydro-1,3-benzothiazol-2-yl)acetamide] | > 85 µM |
| COc1cc(C)c2c(c1C=O)Oc1c(c(C)c(O)c3c1C(O)OC3=O)OC2=O (centres undefined) [1,4-Dihydroxy-10-methoxy-5,8-dimethyl-3,7-dioxo-1,3-dihydro-7H-benzo[e]furo[3',4':3,4]benzo[b][1,4]dioxepine-11-carbaldehyde] | 8.74 µM |
| CC1=CC(C)C(COC(N)=O)(COC(N)=O)C(C)C1 (centres undefined) | > 85 µM |
| O=C(Nc1ccc(-c2nc3ccccc3o2)cc1)c1ccc2c(c1)OCO2 [N-[4-(1,3-benzoxazol-2-yl)phenyl]-1,3-benzodioxole-5-carboxamide] | > 85 µM |
| CC1CCCC(C)N1S(=O)(=O)c1ccc(NC(=O)CCn2cnc3ccccc3c2=O)cc1 (centres undefined) [N-[4-(2,6-dimethylpiperidin-1-yl)sulfonylphenyl]-3-(4-oxoquinazolin-3-yl)propanamide] | > 85 µM |
| COc1cc(CN2CCN(c3ccc(C)cc3)CC2)cc([N+](=O)[O-])c1O [2-methoxy-4-[[4-(4-methylphenyl)-1-piperazinyl]methyl]-6-nitrophenol] | > 85 µM |
| CCCOc1ccccc1N=C(NC(=O)COc1ccc(OC)cc1)Nc1nc(C)cc(C)n1 [N-{[(4,6-dimethyl-2-pyrimidinyl)amino][(2-propoxyphenyl)amino]methylene}-2-(4-methoxyphenoxy)acetamide] | > 85 µM |
| C=CCNc1oc(-c2ccc(OC)cc2)nc1C#N [2-(4-methoxyphenyl)-5-(prop-2-enylamino)-1,3-oxazole-4-carbonitrile] | > 85 µM |

More lines, now with the values ahead:

| IC50 | Compound |
| --- | --- |
| 0.176 µM | O=C1OCC2OC(O)C(O)C(O)C2OC(=O)c2cc(O)c(O)c(O)c2-c2c(O)c(O)c3oc(=O)c4c(c(O)c(O)c5oc(=O)c2c3c54)-c2c1cc(O)c(O)c2O (centres undefined) [SMR000445568] |
| > 85 µM | CN1CCN(C(=O)c2ccc(S(=O)(=O)c3ccc(Br)cc3)cc2)CC1 [SMR000041005] |
| > 85 µM | Cc1onc(-c2c(Cl)cccc2Cl)c1C(=O)Nn1cnnc1 [SMR000009301] |
| > 85 µM | CCC1(C)Nc2ccccc2C(=O)N1O (centres undefined) [SMR000024795] |
| > 85 µM | CN1CCN(C2=C(Cl)C(=O)N(Cc3ccccc3)C2=O)CC1 [MLS000030834] |
| > 85 µM | Cc1cc(C)n(-c2nc3c(c(=O)[nH]c(=O)n3C)n2Cc2ccc(F)cc2)n1 [SMR000046638] |
| > 85 µM | O=C(O)/C=C/c1cn(Cc2ccccc2)nc1-c1ccccc1 [MLS000567315] |
| 5.45 µM | COc1cc(C(=O)O)c2c(c1C)OC(=O)c1c(C)cc(O)c(C=O)c1O2 [NSC-92186] |
| > 85 µM | O=C(CN(Cc1ccco1)C(=O)CCC(=O)Nc1nccs1)NCc1ccccc1 [SMR000117995] |
| > 85 µM | COc1cccc2c1C(=O)c1c(O)c3c(c(O)c1C2=O)C[C@@](O)(C(=O)CO)C[C@@H]3O[C@H]1C[C@H](N)[C@H](O)[C@H](C)O1 [MLS000028393] |
| > 85 µM | CCOC(=O)C1CCN(CC(=O)Nc2c(C(=O)OC)n(C)c3cccc(C)c23)CC1 [SMR000046840] |
| > 85 µM | OC(COc1ccc2c(c1)CCC2)Cn1cnc2ccccc21 (centres undefined) [SMR000082144] |
| > 85 µM | CCC(CC)c1nnc(NS(=O)(=O)Cc2ccccc2)s1 [SMR000074911] |

same assay, conditions: inactive by the depositor's call

| Compound | IC50 |
| --- | --- |
| COC(=O)c1nc(N)sc1-c1ccccc1 [methyl 2-azanyl-5-phenyl-1,3-thiazole-4-carboxylate] | 42.5 µM |
| COC(=O)c1cc2n(n1)CCN(Cc1ccc(F)cc1)C2=O [5-(4-fluorobenzyl)-4-keto-6,7-dihydropyrazolo[1,5-a]pyrazine-2-carboxylic acid methyl ester] | 42.5 µM |
| CCOc1ccc(OCC)c(NC(=O)C2CCN(c3ncccn3)CC2)c1 | 42.5 µM |
| CCOC(=O)Cn1c(=O)c2c(nc(N3CCCCC3)n2Cc2ccccc2)n(C)c1=O [2-(7-benzyl-2,6-diketo-3-methyl-8-piperidino-purin-1-yl)acetic acid ethyl ester] | 1.4 µM |
| O=C(NC1CCCCC1)c1cc([N+](=O)[O-])ccc1N1CCCCC1 [Glucosamine derivative, 8] | 42.5 µM |
| CCOC(=O)N1CCN(C(=O)CSCC(=O)N=c2sc3ccccc3n2C)CC1 | 42.5 µM |
| O=P(OCC(F)(F)C(F)F)(N1CCOCC1)N1CCOCC1 [4-[morpholin-4-yl(2,2,3,3-tetrafluoropropoxy)phosphoryl]morpholine] | 42.5 µM |

The remaining lines, values ahead:

| IC50 | Compound |
| --- | --- |
| 42.5 µM | O=C(CN1C(=O)C2CC=CCC2C1=O)Nc1nccs1 (centres undefined) [MLS000054855] |
| 42.5 µM | CC1(C)CC(=O)C=C(NNC(=O)c2ccccc2O)C1 [SMR000185773] |
| 42.5 µM | CCOC(=O)CN1C(=O)N[C@@H](CCc2ccccc2)[C@@H](C(=O)OC)[C@H]1C [CMLD004122] |
| 42.5 µM | COC(=O)CCC(=O)OC1(C)C(=O)C2=CN(C3CC3)C(c3ccc(OC)cc3)=CC2=C(Br)C1=O (centres undefined) [MLS000438679] |
| 42.5 µM | CC(=O)Nn1c(-c2ccccc2)cc2ccccc21 [MLS000082684] |
| 42.5 µM | Cc1ccc(/C(C#N)=C\c2cn(C)c3ccccc23)cc1 [MLS000051428] |
| 42.5 µM | O=C(CN1C(=O)c2ccccc2S1(=O)=O)Nc1ccc(S(=O)(=O)N2CCCCC2)cc1 [SMR000074755] |

— BindingDB's records for doi:10.7270/Q2BV7F1T (Pcmd, 2008)
